Reference: ChEMBL document CHEMBL1151984, “Dietary derived sesquiterpenes from Phyllodesmium lizardensis” (J Nat Prod, 2009)
Activity calls are given as the source filed them.

Tests used:
Type in all cases: functional, organism-based
Priestia megaterium = experiment: Antibacterial activity against Bacillus megaterium at 50 ug/disk
Escherichia coli = experiment: Antibacterial activity against Escherichia coli at 50 ug/disk
Mycotypha microspora = experiment: Antifungal activity against Mycotypha microspora at 50 ug/disk
Aspergillus ruber = experiment: Antifungal activity against Eurotium rubrum at 50 ug/disk
Microbotryum violaceum = experiment: […] activity against Microbotryum violaceum at 50 ug/disk

Measured: Activity

CC(=O)O[C@@H]1C[C@H]2C(C)=CC[C@H](C(C)C)[C@H]2C=C1C
inactive: all assays above

CC1=C[C@@H]2[C@@H](C(C)C)CC=C(C)[C@@H]2C[C@H]1O
inactive: all assays above
